Data set [1] relates to microbe spectrum of a microbially contaminated slurry. As to the kind of experiment: quantitative test of microbial count reduction in a microbially contaminated slurry. It counts as cell-based. More on the design: unit not given here. The note with it: PCC slurry. On the procedure: Here, the quantitative test was carried out to determine how rapidly (1 hour to 7 days) the stated amounts of active substance reduce the microbial count of a microbially contaminated slurry.

The conditions of data set [2]: cited from earlier work.
Data set [3] relates to microbially contaminated (alkaline) slurry. The note with it: cited from earlier work.

Where only a bound is given, the exact number is not on record here.

On to `OCOCCOCO` [EDDM, (ethylenedioxy)dimethanol], for which the microbial count is 1.6 * 10^5 in data set [1] (100 ppm EDDM, 1 hour); 1.7 * 10^5 in data set [1] (100 ppm EDDM, 2 hours); 1.6 * 10^5 in data set [1] (100 ppm EDDM, 3 hours); 3.4 * 10^4 in data set [1] (100 ppm EDDM, 24 hours); 3.3 * 10^4 in data set [1] (100 ppm EDDM, 3 days); 5.6 * 10^3 in data set [1] (100 ppm EDDM, 7 days). For the same compound, the microbial count in data set [1] (200 ppm EDDM, 1 hour) was 1.6 * 10^5; in data set [1] (200 ppm EDDM, 2 hours), 1.1 * 10^5; in data set [1] (200 ppm EDDM, 3 hours), 1.2 * 10^5; in data set [1] (200 ppm EDDM, 24 hours), 2.9 * 10^4; in data set [1] (200 ppm EDDM, 3 days) it was 2.3 * 10^4; in data set [1] (200 ppm EDDM, 7 days) it was 1.7 * 10^3. For the same compound, the “decline in active substance at elevated temperatures” value in data set [2] (50-80° C., over a period of a few days, alkaline pH) is reported as “no significant decline”.

With `O=CCCCC=O` [GDA, glutaraldehyde], the microbial count is 1.2 * 10^5 in data set [1] (10 ppm GDA, 1 hour); 1.3 * 10^4 in data set [1] (10 ppm GDA, 2 hours); 2.6 * 10^3 in data set [1] (10 ppm GDA, 3 hours); less than 100 in data set [1] (10 ppm GDA, 24 hours); 4.7 * 10^2 in data set [1] (10 ppm GDA, 3 days); 3.5 * 10^5 in data set [1] (10 ppm GDA, 7 days). The microbial count is 2.2 * 10^3 in data set [1] (20 ppm GDA, 1 hour); 3.0 * 10^2 in data set [1] (20 ppm GDA, 2 hours); less than 100 in data set [1] (20 ppm GDA, 3 hours); less than 100 in data set [1] (20 ppm GDA, 24 hours); less than 100 in data set [1] (20 ppm GDA, 3 days); 1.7 * 10^3 in data set [1] (20 ppm GDA, 7 days). The “time to sanitize a microbially contaminated (alkaline) slurry” value in data set [3] is 1 to 4 h. In addition, the “degradation of active substance in the slurry” value in data set [2] (in the slurry after a few days) was “completely degraded”.

The values above are taken from US20090088483A1, “AQUEOUS SUSPENSIONS OR DISPERSIONS OF INORGANIC PIGMENTS CONTAINING A MIXTURE CONSISTING OF DIALDEHYDES AND FORMALDEHYDE CLEAVERS” (priority 2005, published 2009).
